Reference: patent US20250041284A1, “TREATMENT OF NEUROLOGICAL DISORDERS” (Praxis Precision Medicines, Inc., priority 2022, published 2025)
Entries after “also recorded” stand apart in the source; their conditions may differ.

What was measured:
[1] = test system: scPTZ-induced seizures in wildtype CD-1 mice; test: Subcutaneous pentylenetetrazole (scPTZ) induced seizure; type: in vivo, mouse; details: 1-10 mg/kg orally
Experimental: (§1) Male CD-1 mice (Charles River Laboratories, St. Constant, Quebec, Canada) were used for the study. Body weights at the time the experiment was carried out were between 27 and 39 grams. The mice were group-housed in polycarbonate cages according to standard operating procedures. Animals were maintained on a 12 hour light/12 hour dark cycle, with all experimental activities occurring during the light phase. Food and water were available ad libitum. Mice acclimated to the test facility for at least 72 hours prior to testing.
Treatment was conducted using Compound 1 and 35% 2-hydroxypropyl-β-cyclodextrin (35% HPBCD, used as a negative control). Compound 1 stock solution was prepared fresh each experiment day in 35% HPBCD. […]
Immediately prior to the administration of PTZ, a brief neurological assessment was performed. Each animal was visually assessed and received a score from 0 to 3 according to the following scoring system: neurological score of 0 corresponds to a normal status; neurological score of 1 corresponds to a modest decrease in spontaneous activity; neurological score of 2 corresponds to a marked decrease in spontaneous activity; and neurological score of 3 corresponds to loss of righting reflex.
PTZ (85 mg/kg, 10 ml/kg) was administered as a subcutaneous (s.c.) injection. […] The latency to generalized clonic seizure was recorded. Seizures were also scored using a seizure scale. […]

[2] = test system: psychomotor seizures induced by 6-Hz electrical stimulation in wild-type CD-1 mice; test: 6-Hz psychomotor seizure model; type: in vivo, mouse; set-up: EC50 value, protection from psychomotor seizures: unit not given here
Description: This study evaluated the efficacy of Compound 1 in attenuating psychomotor seizures induced by 6-Hz electrical stimulation at two different stimulation intensities (32 and 44 mA) in wild-type CD-1 mice. Psychomotor seizures are defined as the expression of at least one of the following behaviors: stun/immobility, forelimb clonus, straub tail or lateral head movement within 30 seconds of the stimulus. Protection is defined as a complete absence of the above behaviors within 30 seconds of the stimulus. Doses of Compound 1 used were 1 mg/kg, 3 mg/kg and 6 mg/kg administered orally. Valproate (600 mg/kg, administered intraperitoneally) was used as a positive control.
as §1, with “River Laboratories;” for “River Laboratories,”, “Quebec, CAN)” for “Quebec, Canada)”, “were 30-40” for “were between 27 and 39”, “a 12-hour” for “a 12 hour”
Treatment was conducted using Compound 1 and 35% 2-hydroxypropyl-β-cyclodextrin (35% HPBCD, used as a negative control). Compound 1 stock solution was prepared fresh each experiment day in 35% HPBCD. […] Valproate was prepared fresh each experiment day in a vehicle of saline and dosed at 10 mL/kg.
Mice were administered vehicle (35% HPBCD), a single dose of Compound 1 (1 mg/kg, 3 mg/kg or 6 mg/kg) or valproate (600 mg/kg). Vehicle and Compound 1 were administered via oral gavage 30 minutes prior to […]. Valproate was administered as an intraperitoneal injection 60 minutes prior to the electrical stimulus.
Immediately prior to conducting the 6-Hz seizure test, a brief neurological assessment was performed. Each animal was visually assessed and received a score from 0 to 3 according to the following scoring system::neurological score of 0 corresponds to a normal status; neurological score of 1 corresponds to a modest decrease in spontaneous activity; neurological score of 2 corresponds to a marked decrease in spontaneous activity; and neurological score of 3 corresponds to loss of righting reflex.
Corneal electrodes moistened with saline (ECT unit 57800; Ugo Basile) were used to deliver the electrical stimulus (6-Hz, 0.2 millisecond pulse width, 3 seconds duration). The current delivered was either 32 mA or 44 mA. Immediately after the electrical stimulus, each mouse was monitored continuously for 30 seconds by an observer blinded to the treatment group. […] Mice were scored for the presence or absence of each seizure behavior, with a maximum total score of 4. […] At the end of the 6-Hz seizure test, plasma and brain samples were collected.
Mice were anesthetized with isoflurane, whole blood was collected via cardiac puncture and brains were harvested. Whole blood was collected in potassium EDTA tubes and centrifuged at ˜3300 g for 5 minutes at 4° C. to isolate plasma. Plasma and brain samples were stored at −80° C. and analyzed to determine levels of Compound 1.
All statistical analyses were conducted using GraphPad Prism 9.3. Seizure scores were compared using Kruskal-Wallis test, followed by Dunn's post hoc and p<0.05 was considered statistically significant.

With CCOC(F)(F)c1nnc2ccc(-c3cnc(OCC(F)(F)F)c(F)c3)cn12 [Compound 1] as the compound, how does the “neurological scores before PTZ” value [1] read?
The value was “Neurological scores for all but one mouse treated with Compound 1 were normal”.

What about the “protection from PTZ-induced generalized clonus” value ([1]; PTZ 85 mg/kg s.c.) of the same compound?
Its value is “mice were protected from generalized clonus”.

And the seizure score ([2]; 6 mg/kg orally, 32 and 44 mA)?
Its seizure score is “significantly reduced the seizure score; also recorded: reduced seizure scores”.

What about the “neurological scores before 6-Hz test” value ([2]; 1, 3, 6 mg/kg orally) of the same compound?
The value was “all neurological scores were zero; also recorded: Neurological scores for all doses of Compound 1 tested were normal”.

And the “Plasma EC50” value ([2]; 32 mA, 95% confidence interval in parentheses)?
Its value is 385 (383-386) ng/mL.

What about the “Plasma EC50” value ([2]; 44 mA) of the same compound?
The value was over 441 ng/mL.

And the ED50 ([2]; Mus musculus, dose-response curve, read-out: ED50 value, protection from psychomotor seizures)?
Its ED50 is 1.9 mg/kg.

What about the “EC50 value, protection from psychomotor seizures” value ([2]; plasma concentration-response curve) of the same compound?
The value was 147.
